Results from article PMC9182199, “Borylated 2,3,4,5-Tetrachlorophthalimide and Their 2,3,4,5-Tetrachlorobenzamide Analogues: Synthesis, Their Glycosidase Inhibition and Anticancer Properties in View to Boron Neutron Capture Therapy” (Molecules, 2022).

Columns and labels:
MCF10A [1] = assay: MTT cell growth inhibition: MCF10A normal breast; format: cell-based; settings: Homo sapiens, MCF-10A, read-out: GI50 = Concentration (µM) that inhibits cell growth by 50%
almond β-glucosidase = assay: Glycosidase inhibition, laboratory 1: almond β-glucosidase; format: biochemical; settings: methanol
Source text: (§1) The enzymes α-glucosidase (from yeast), β-glucosidases (from almond and bovine liver), α-galactosidase (from coffee beans), β-galactosidase (from bovine liver), α-mannosidase (from Jack bean), β-mannosidase (from snail), α-L-rhamnosidase (from Penicillium decumbens), α-L-fucosidase (from bovine kidney), trehalase (from porcine kidney), β-glucuronidases (from E. coli and bovine liver), amyloglucosidase (from A. niger), para-nitrophenyl glycosides, and various disaccharides were purchased from Sigma-Aldrich Co (St Louis, MO, USA).
(§2) Brush border membranes were prepared from the rat small intestine according to the method of Kessler et al. and were assayed at pH 6.8 for rat intestinal maltase using maltose. For rat intestinal maltase, porcine kidney trehalase, and A. niger amyloglucosidase activities, the reaction mixture contained 25 mM maltose and the appropriate amount of enzyme, and the incubations were performed for 10–30 min at 37 °C. The reaction was stopped by heating at 100 °C for 3 min. After centrifugation (600× g; 10 min), the resulting reaction mixture was added to the Glucose CII-test Wako (Wako Pure Chemical Ind., Osaka, Japan). The absorbance at 505 nm was measured to determine the amount of the released D-glucose. Other glycosidase activities were determined using an appropriate para-nitrophenyl glycoside as substrate at the optimum pH of each enzyme. The reaction mixture contained 2 mM of the substrate and the appropriate amount of enzyme. The reaction was stopped by addition of 400 mM Na2CO3. The released para-nitrophenol was measured spectrometrically at 400 nm. All reactions run in methanol.

Du145 = assay: MTT cell growth inhibition: Du145; format: cell-based; settings: Homo sapiens, DU-145, read-out: GI50 = Concentration (µM) that inhibits cell growth by 50%; Du145 prostate carcinoma; dose response
SJ-G2 = assay: MTT cell growth inhibition: SJ-G2; format: cell-based; settings: read-out: GI50 = Concentration (µM) that inhibits cell growth by 50%; SJ-G2 glioblastoma; dose response
MCF10A [2] = assay: MTT cell growth inhibition: MCF10A normal breast; format: cell-based; settings: 72 h; for inhibition at 25 µM: Homo sapiens, MCF-10A, read-out: Percentage (%) Cell Growth Inhibition in response to 25 µM of Drug; for Percentage (%) Cell Growth Inhibition in response to 25 µM of Drug: MCF10A breast (normal), MTT
Protocol: All test agents were prepared as stock solutions (20 mM) in dimethyl sulfoxide (DMSO) and stored at −20 °C. Cell lines used in the study included HT29 (colorectal carcinoma); U87, SJ-G2, (glioblastoma); MCF-7, (breast carcinoma); A2780 (ovarian carcinoma); H460 (lung carcinoma); A431 (skin carcinoma); Du145 (prostate carcinoma); BE2-C (neuroblastoma); MiaPaCa-2 (pancreatic carcinoma); and SMA560 (spontaneous murine astrocytoma), together with the one non-tumour-derived normal breast cell line (MCF10A). All cell lines were incubated in a humidified atmosphere 5% CO2 at 37 °C. The cancer cell lines were maintained in Dulbecco’s modified Eagle’s medium (DMEM; Sigma, Australia) supplemented with foetal bovine serum (10%), sodium pyruvate (10 mM), penicillin (100 IUmL^−1), streptomycin (100 µg mL^−1) and L-glutamine (2 mM).
The non-cancer MCF10A cell line was maintained in DMEM:F12 (1:1) cell culture media, 5% heat-inactivated horse serum, supplemented with penicillin (50 IUmL^−1), streptomycin (50 µg mL^−1), HEPES (20 mM), L-glutamine (2 mM), epidermal growth factor (20 ng mL^−1), hydrocortisone (500 ng mL^−1), cholera toxin (100 ng mL^−1) and insulin ([…]).
Growth inhibition was determined by plating cells in duplicate in medium (100 µL) at a density of 2500–4000 cells per well in 96-well plates. On day 0 (24 h after plating), when the cells were in logarithmic growth, medium (100 µL) with or without the test agent was added to each well. After 72 h drug exposure, growth inhibitory effects were evaluated using the MTT (3-(4,5-dimethyltiazol-2-yl)-2,5-diphenyltetrazolium bromide) assay and absorbance read at 540 nm. The percentage growth inhibition was calculated at a fixed concentration of 25 µM, based on the difference between the optical density values on day 0 and those at the end of drug exposure. Each data point is the mean ± the standard error of the mean (SEM) calculated from three replicates which were performed on separate occasions and separate cell line passages.

MIA-Pa-Ca2 = assay: MTT cell growth inhibition: MIA-Pa-Ca2; format: cell-based; settings: Homo sapiens, MIA PaCa-2, read-out: GI50 = Concentration (µM) that inhibits cell growth by 50%; MIA-Pa-Ca2 pancreatic carcinoma; dose response
snail β-mannosidase = assay: Glycosidase inhibition, laboratory 1: snail β-mannosidase; format: biochemical; settings: methanol
Source text: as §1, §2

Jack bean α-mannosidase = molecular target: T1, Jack bean α-mannosidase (Canavalia ensiformis, UniProt C0HJB3); assay: Glycosidase inhibition, laboratory 1: Jack bean α-mannosidase; format: biochemical; settings: methanol
T1 construct: purchased Sigma-Aldrich Co
T1 sequence (C0HJB3 1-981): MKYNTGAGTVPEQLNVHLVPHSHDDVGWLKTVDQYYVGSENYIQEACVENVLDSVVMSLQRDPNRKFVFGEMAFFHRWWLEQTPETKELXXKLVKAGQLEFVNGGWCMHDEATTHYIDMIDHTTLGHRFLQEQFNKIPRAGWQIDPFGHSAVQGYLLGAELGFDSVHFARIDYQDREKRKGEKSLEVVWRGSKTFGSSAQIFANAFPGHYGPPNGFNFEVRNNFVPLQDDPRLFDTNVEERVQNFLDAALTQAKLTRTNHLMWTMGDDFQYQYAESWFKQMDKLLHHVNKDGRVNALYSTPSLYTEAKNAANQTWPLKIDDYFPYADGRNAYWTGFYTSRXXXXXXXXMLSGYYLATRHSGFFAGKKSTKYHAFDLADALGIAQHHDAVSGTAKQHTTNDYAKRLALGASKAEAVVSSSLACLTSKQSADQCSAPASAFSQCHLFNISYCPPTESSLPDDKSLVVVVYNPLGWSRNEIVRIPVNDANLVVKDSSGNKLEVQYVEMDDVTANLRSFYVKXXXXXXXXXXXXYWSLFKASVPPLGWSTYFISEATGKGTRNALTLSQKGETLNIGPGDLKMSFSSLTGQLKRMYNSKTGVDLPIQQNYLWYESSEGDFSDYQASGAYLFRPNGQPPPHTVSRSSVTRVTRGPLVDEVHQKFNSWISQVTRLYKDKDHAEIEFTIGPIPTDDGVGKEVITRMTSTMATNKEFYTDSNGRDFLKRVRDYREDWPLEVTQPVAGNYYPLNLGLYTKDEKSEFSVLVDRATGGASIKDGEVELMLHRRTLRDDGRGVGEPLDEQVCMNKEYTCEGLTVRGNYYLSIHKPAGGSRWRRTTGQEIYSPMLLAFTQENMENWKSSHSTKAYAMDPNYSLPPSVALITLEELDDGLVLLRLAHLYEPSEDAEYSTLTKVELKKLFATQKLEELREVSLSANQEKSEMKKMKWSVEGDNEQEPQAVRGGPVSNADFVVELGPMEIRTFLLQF
Source text: as §1, §2

Compound	GI50 (MCF10A [1])	GI50 (Du145)	GI50 (SJ-G2)	inhibition at 25 µM (MCF10A [2])	GI50 (MIA-Pa-Ca2)	inhibition % at 100 μM (snail β-mannosidase)	inhibition at 100 µM (Jack bean α-mannosidase; 100 μM)	inhibition % at 100 μM (almond β-glucosidase)	also measured
CC1(C)OB(c2ccccc2NC(=O)c2cc(Cl)c(Cl)c(Cl)c2Cl)OC1(C)C [ortho 5, 2,3,4,5-Tetrachloro-N-(2-(4,4,5,5-tetramethyl-1,3,2-dioxaborolan-2-yl)phenyl)benzamide]	27 ± 2.8 µM	16 ± 1.9 µM	16 ± 0.91 µM	58 ± 9%	14 ± 0.25 µM	–	–	–	inhibition % at 10 μM (almond β-glucosidase): ^cNI ^d (11.6%); inhibition % at 10 μM (snail β-mannosidase): ^cNI ^d (0%); inhibition at 10 µM (Jack bean α-mannosidase): 3.4%
CC1(C)OB(c2ccccc2CNC(=O)c2cc(Cl)c(Cl)c(Cl)c2Cl)OC1(C)C [ortho 8, 2,3,4,5-tetrachloro-N-(2-(4,4,5,5-tetramethyl-1,3,2-dioxaborolan-2-yl)benzyl)benzamide]	–	–	–	< 0%	–	^aNI ^b (39%)	12.5%	–	IC50 (almond β-glucosidase): 254 µM
N[C@@H](Cc1ccc(B(O)O)cc1)C(=O)O [^10B-BPA, reference compound]	–	–	–	–	–	^cNI ^d (0.3%)	–	^cNI ^d (0%)	Percentage (%) Cell Growth Inhibition in response to 25 µM of Drug (MCF10A [2]): <0%; inhibition % at 100 μM (Jack bean α-mannosidase; 100 μM): ^cNI ^d (0%)
CC1(C)OB(c2cccc(NC(=O)c3cc(Cl)c(Cl)c(Cl)c3Cl)c2)OC1(C)C [meta 5, 2,3,4,5-tetrachloro-N-(3-(4,4,5,5-tetramethyl-1,3,2-dioxaborolan-2-yl)phenyl)benzamide]	–	–	–	< 0%	–	^aNI ^b (39.1%)	7.6%	^aNI ^b (30.2%)	–
CC1(C)OB(c2ccc(CN3C(=O)c4c(Cl)c(Cl)c(Cl)c(Cl)c4C3=O)cc2)OC1(C)C [para 3, 4,5,6,7-Tetrachloro-2-(4-(4,4,5,5-tetramethyl-1,3,2-dioxaborolan-2-yl)benzyl)isoindoline-1,3-dione]	12 ± 0.58 µM	5.5 ± 0.23 µM	6.6 ± 2.4 µM	> 100%	9.2 ± 1.9 µM	^aNI ^b (0%)	0%	^aNI ^b (0.7%)	–
Borocaptate sodium [BSH, reference compound]	–	–	–	–	–	–	–	–	inhibition % at 1000 μM (almond β-glucosidase; 1000 μM): ^aNI ^b (0%); Percentage (%) Cell Growth Inhibition in response to 25 µM of Drug (MCF10A [2]): 8 ± 3%; inhibition % at 1000 μM (snail β-mannosidase; 1000 μM): ^aNI ^b (19.2%); inhibition % at 1000 μM (Jack bean α-mannosidase; 1000 μM): ^aNI ^b (7.9%)
N[C@@H](Cc1ccc(B(O)O)cc1)C(=O)O [BPA, 4-borono-L-phenylalanine, reference compound]	–	–	–	4 ± 1%	–	^cNI ^d (2.1%)	–	^cNI ^d (0%)	–
CC1(C)OB(c2ccc(NC(=O)c3cc(Cl)c(Cl)c(Cl)c3Cl)cc2)OC1(C)C [para 5, 2,3,4,5-tetrachloro-N-(4-(4,4,5,5-tetramethyl-1,3,2-dioxaborolan-2-yl)phenyl)benzamide]	–	–	–	2 ± 11%	–	^aNI ^b (30.4%)	19.3%	^aNI ^b (17.1%)	–
CC1(C)OB(c2cccc(CN3C(=O)c4c(Cl)c(Cl)c(Cl)c(Cl)c4C3=O)c2)OC1(C)C [meta 3, 4,5,6,7-Tetrachloro-2-(3-(4,4,5,5-tetramethyl-1,3,2-dioxaborolan-2-yl)benzyl)isoindoline-1,3-dione]	18 ± 1 µM	30 ± 0.41 µM	35 ± 1.7 µM	69 ± 7%	38 ± 2.9 µM	–	–	–	inhibition % at 10 μM (almond β-glucosidase): ^cNI ^d (5.0%); inhibition % at 10 μM (snail β-mannosidase): ^cNI ^d (1.1%); inhibition at 10 µM (Jack bean α-mannosidase): 2.7%
